Data taken from US9872847B2 (priority 2013, dated 2018).

Tests used:
Harmaline-induced tremor = assay: animal or person; type: in vivo, male Sprague-Dawley rats; conditions: po; for inhibition in vivo at 130 mg/kg / ED50 / inhibition in vivo at 100 mg/kg: Rattus norvegicus; for inhibition in vivo at 130 mg/kg / inhibition in vivo at 100 mg/kg: 0.5 h, read-out: Protection % (percentage of activity compared to the vehicle only); for On-set time Mean ± S.E.M. / On-set time Median / Tremor score Mean ± S.E.M. / Tremor score Median: rat, in vivo
[1] = test system: motor abilities on the Rotarod; assay: Neurotoxicity (Rotarod); type: in vivo; conditions: protective index, mice
Description: The measurement of neurotoxicity of the test compounds was conducted by the method of Dunham and Miya [Dunham, N. W. and Miya, T. S. 1957. A note on a simple apparatus for detecting neurological deficit in rats and mice. J. Am. Pharm. Assoc. (Baltimore) 46: 208˜209]. In the method, motor abilities of the test animals can be determined by observing whether the test animals can walk without falling from a rotator, thereby determining the value of neurotoxicity of each compound. […] They were pre-trained on the rotarod (Rotarod; Columbus instrument, rota-max, USA) at 6 rpm for 5 min 24 hr prior to the test. The peak time was determined by administration test material's random dose for 0.5, 1, 2, 4 hour. […] The ratio of TD50 to ED50 (TD50/ED50) is called as a protective index, and useful as a parameter for comparison of pharmaceutical efficacy and neurotoxicity.

[2] = test system: MES (electrical stimulus) seizure; assay: animal or person; type: in vivo, male ICR mice; conditions: for Protection % (percentage of activity compared to the vehicle only): mouse, in vivo

CC(OC(N)=O)C(O)c1ccccc1Cl (racemic) [Compound 3, 1-(2-chlorophenyl)-1-hydroxypropyl-2-carbamate]
inhibition in vivo at 130 mg/kg (Harmaline-induced tremor): 75% | PI(TD50/ED50 in MES) [1]: 12.0

CCCNC(=O)O[C@H](C)[C@H](O)c1ccccc1Cl (racemic) [Compound 30, 1-(2-chlorophenyl)-1-hydroxypropyl-2-propylcarbamate]
Protection % (percentage of activity compared to the vehicle only) [2]: 200 ^a(25%)

C[C@H](OC(N)=O)[C@@H](O)c1ccccc1Cl [Compound 1, 1-(2-chlorophenyl)-(S)-1-hydroxypropyl-(S)-2-carbamate]
ED50 (Harmaline-induced tremor): 12.9 mg/kg | On-set time Mean ± S.E.M. (Harmaline-induced tremor; 5 mg/kg): 243 ± 7 s | On-set time Median (Harmaline-induced tremor; 5 mg/kg): 250 s | Tremor score Mean ± S.E.M. (Harmaline-induced tremor; 5 mg/kg): 4.8 ± 0.5 | Tremor score Median (Harmaline-induced tremor; 5 mg/kg): 5.0 | On-set time Mean ± S.E.M. (Harmaline-induced tremor; 10 mg/kg): 289 ± 19 s | On-set time Median (Harmaline-induced tremor; 10 mg/kg): 265 s | Tremor score Mean ± S.E.M. (Harmaline-induced tremor; 10 mg/kg): 3.6 ± 0.6 | Tremor score Median (Harmaline-induced tremor; 10 mg/kg): 2.5 | On-set time Mean ± S.E.M. (Harmaline-induced tremor; 20 mg/kg): 367 ± 21 s | On-set time Median (Harmaline-induced tremor; 20 mg/kg): 375 s | Tremor score Mean ± S.E.M. (Harmaline-induced tremor; 20 mg/kg): 1.8 ± 0.1 | Tremor score Median (Harmaline-induced tremor; 20 mg/kg): 1.8

C[C@@H](OC(N)=O)[C@H](O)c1ccccc1Cl [Compound 2, 1-(2-chlorophenyl)-(R)-1-hydroxypropyl-(R)-2-carbamate]
inhibition in vivo at 130 mg/kg (Harmaline-induced tremor): 66.7% | PI(TD50/ED50 in MES) [1]: 7.3

C[C@@H](OC(N)=O)[C@@H](O)c1ccccc1Cl [Compound 4, 1-(2-chlorophenyl)-(S)-1-hydroxypropyl-(R)-2-carbamate]
inhibition in vivo at 100 mg/kg (Harmaline-induced tremor): 66.7%

C[C@H](OC(N)=O)[C@H](O)c1ccccc1Cl [Compound 5, 1-(2-chlorophenyl)-(R)-1-hydroxypropyl-(S)-2-carbamate]
PI(TD50/ED50 in MES) [1]: 3.3

CC[C@H](OC(N)=O)[C@@H](O)c1ccccc1Cl [Compound 6, 1-(2-chlorophenyl)-(S)-1-hydroxybutyl-(S)-2-carbamate]
inhibition in vivo at 130 mg/kg (Harmaline-induced tremor): 75%

CC(C)[C@H](OC(N)=O)[C@@H](O)c1ccccc1Cl [Compound 9, 1-(2-chlorophenyl)-(S)-1-hydroxy-3-methyl-butyl-(S)-2-carbamate]
inhibition in vivo at 130 mg/kg (Harmaline-induced tremor): 58.3%

CCCNC(=O)O[C@@H](C)[C@@H](O)c1ccccc1Cl [Compound 16, 1-(2-chlorophenyl)-(S)-1-hydroxypropyl-(S)-2-N-propylcarbamate]
Protection % (percentage of activity compared to the vehicle only) [2]: 200 ^a(25%)

C[C@H](OC(=O)NC1CC1)[C@@H](O)c1ccccc1Cl [Compound 25, 1-(2-chlorophenyl)-(R)-1-hydroxypropyl-(R)-2-N-cyclopropylcarbamate]
responders at 200 mg/kg ([2]; Mus musculus, po, read-out: Protection % (percentage of activity compared to the vehicle only)): 25%

C[C@H](OC(N)=O)[C@@H](O)c1ccc(Cl)cc1Cl [Compound 36, 1-(2,4-dichlorophenyl)-(S)-1-hydroxypropyl-(S)-2-carbamate]
inhibition in vivo at 130 mg/kg (Harmaline-induced tremor): 83.3%

C[C@H](OC(N)=O)[C@@H](O)c1c(Cl)cccc1Cl [Compound 37, 1-(2,6-dichlorophenyl)-(S)-1-hydroxypropyl-(S)-2-carbamate]
inhibition in vivo at 130 mg/kg (Harmaline-induced tremor): 91.7% | PI(TD50/ED50 in MES) [1]: 5.1

C[C@H](OC(N)=O)[C@@H](O)c1cccc(Cl)c1Cl [Compound 38, 1-(2,3-dichlorophenyl)-(S)-1-hydroxypropyl-(S)-2-carbamate]
inhibition in vivo at 100 mg/kg (Harmaline-induced tremor): 55%

CC[C@H](OC(N)=O)[C@@H](O)c1ccc(Cl)cc1Cl [Compound 39, 1-(2,4-dichlorophenyl)-(S)-1-hydroxybutyl-(S)-2-carbamate]
inhibition in vivo at 130 mg/kg (Harmaline-induced tremor): 66.7%

CC(C)[C@H](OC(N)=O)[C@@H](O)c1c(Cl)cccc1Cl [Compound 42, 1-(2,6-dichlorophenyl)-(S)-1-hydroxy-3-methyl-butyl-(S)-2-carbamate]
inhibition in vivo at 100 mg/kg (Harmaline-induced tremor): 71.7%

C[C@@H](OC(N)=O)[C@H](O)c1c(Cl)cccc1Cl [Compound 46, 1-(2,6-dichlorophenyl)-(R)-1-hydroxypropyl-(R)-2-carbamate]
inhibition in vivo at 100 mg/kg (Harmaline-induced tremor): 58.3%

C[C@H](OC(N)=O)[C@@H](O)c1ccccc1F [Compound 63, 1-(2-fluorophenyl)-(S)-1-hydroxypropyl-(S)-2-carbamate]
inhibition in vivo at 100 mg/kg (Harmaline-induced tremor): 83.3%

C[C@H](OC(N)=O)[C@@H](O)c1ccccc1I [Compound 65, 1-(2-iodophenyl)-(S)-1-hydroxypropyl-(S)-2-carbamate]
ED50 (Harmaline-induced tremor): 19.2 mg/kg

CC[C@H](OC(N)=O)[C@@H](O)c1ccccc1I [Compound 67, 1-(2-iodophenyl)-(S)-1-hydroxybutyl-(S)-2-carbamate]
inhibition in vivo at 100 mg/kg (Harmaline-induced tremor): 83.3%
